According to patent US20150225404A1, “PYRIDINE DERIVATIVE AND MEDICINE” (NIPPON SHINYAKU CO., LTD., priority 2012, published 2015):
Counter-ions that a name gives are not always drawn. Like-named read-outs stand apart in the source and are kept apart here.

Assays:
male Slc:ICR mice = assay: Action against pain-related behavior and micturition cycle in mice with cyclophosphamide (CP)-induced acute cystitis; type: in vivo; settings: Mus musculus, iv, 0.25 h, CP 300 mg/kg i.p., 15 minutes observation; for inhibition in vivo at 3 mg/kg: test substance 3 mg/kg intravenously 3 hours after CP; for inhibition in vivo at 1 mg/kg: test substance 1 mg/kg intravenously 3 hours after CP
Method: An action of a test substance against visceral pain and frequent urination associated with cystitis, which was induced by intraperitoneal administration (20 mL/kg) of CP (300 mg/kg) to 4 to 5-week-old male Slc:ICR mice (available from Japan SLC, Inc.), was investigated. This experiment was performed according to a method described in European Journal of Pharmacology, 676 (2012), pp. 75-80.
Three hours after the administration of CP, a test substance (1 mg/kg or 3 mg/kg) was intravenously administered, and observation by visual inspection and video recording were performed for 15 minutes immediately thereafter. In the observation by visual inspection, four pain-related behaviors (eye opening, rounded back, leg dragging, and behavior during urination) were scored, each rated on a scale of 0-10, according to the following criteria.
Eye opening (normal: 0 point, sometimes closed or half-open eyes: 5 points, completely closed: 10 points)
Rounded back (normal: 0 point, sometimes crouched: 5 points, crouched at almost all times: 10 points)
Leg dragging (normal: 0 point, leg dragging: 10 points)
Behavior during urination (normal: 0 point, shaking hip in micturition: 10 points)
In addition, the video was played back, and the frequency of licking behavior around the abdomen as a pain-related behavior was scored, rated on a scale of 0-10, according to the following criteria.
Licking behavior around the abdomen (0 to 3 times: 0 point, 4 times to 10 times: 5 points, 11 times or more: 10 points)
Furthermore, the video was played back, and the frequency of urination (urination marks) on a filter paper was counted and taken as an index for micturition cycle.
An average value of the pain-related behavior score of each group (total score of the five items: 50 points at maximum) and an average value of the frequency of urination (urination marks) on the filter paper were determined.
The strength of an analgesic action of the test substance against the CP-induced visceral pain was evaluated in terms of percent inhibition (%) of pain-related behavior score which is calculated as {(A−B)/A×100}, wherein A is an average value of the pain-related behavior score of a medium-administered group, and B is an average value of the pain-related behavior score of a test substance-administered group.
In addition, the strength of a frequent urination inhibitory action of the test substance against the CP-induced frequent urination was evaluated in terms of percent inhibition (%) of the frequency of urination which is calculated as {(C−D)/C×100}, wherein C is an average value of the frequency of urination of a medium-administered group, and D is an average value of the frequency of urination of a test substance-administered group.

human mGluR5 = molecular target: T1, human mGluR5 (Homo sapiens, UniProt P41594); assay: Experiment for receptor function of mGluR5 (Ca2+-dependent fluorescence, FLIPR, CHO-K1 cells stably expressing human mGluR5); type: cell-based; settings: L-glutamic acid 10 μM, Fluo-4 fluorescence
T1 construct: expressed in transfected cells
Procedure, shortened: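 Fluo-4-loaded CHO-K1 cells pre-incubated 2 min with test substance, then stimulated with L-glutamic acid (final 10 μM) in HBSS, pH 7.4. FLIPR Ca2+ fluorescence normalized to glutamate alone (100%) and glutamate with 10 μM MPEP (0%); IC50 estimated by logistic fit.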

[1] = read-out: Percent inhibition of pain-related behavior score (%)
[2] = read-out: Percent inhibition of the frequency of urination (%)

T1 sequence (P41594 21-1212): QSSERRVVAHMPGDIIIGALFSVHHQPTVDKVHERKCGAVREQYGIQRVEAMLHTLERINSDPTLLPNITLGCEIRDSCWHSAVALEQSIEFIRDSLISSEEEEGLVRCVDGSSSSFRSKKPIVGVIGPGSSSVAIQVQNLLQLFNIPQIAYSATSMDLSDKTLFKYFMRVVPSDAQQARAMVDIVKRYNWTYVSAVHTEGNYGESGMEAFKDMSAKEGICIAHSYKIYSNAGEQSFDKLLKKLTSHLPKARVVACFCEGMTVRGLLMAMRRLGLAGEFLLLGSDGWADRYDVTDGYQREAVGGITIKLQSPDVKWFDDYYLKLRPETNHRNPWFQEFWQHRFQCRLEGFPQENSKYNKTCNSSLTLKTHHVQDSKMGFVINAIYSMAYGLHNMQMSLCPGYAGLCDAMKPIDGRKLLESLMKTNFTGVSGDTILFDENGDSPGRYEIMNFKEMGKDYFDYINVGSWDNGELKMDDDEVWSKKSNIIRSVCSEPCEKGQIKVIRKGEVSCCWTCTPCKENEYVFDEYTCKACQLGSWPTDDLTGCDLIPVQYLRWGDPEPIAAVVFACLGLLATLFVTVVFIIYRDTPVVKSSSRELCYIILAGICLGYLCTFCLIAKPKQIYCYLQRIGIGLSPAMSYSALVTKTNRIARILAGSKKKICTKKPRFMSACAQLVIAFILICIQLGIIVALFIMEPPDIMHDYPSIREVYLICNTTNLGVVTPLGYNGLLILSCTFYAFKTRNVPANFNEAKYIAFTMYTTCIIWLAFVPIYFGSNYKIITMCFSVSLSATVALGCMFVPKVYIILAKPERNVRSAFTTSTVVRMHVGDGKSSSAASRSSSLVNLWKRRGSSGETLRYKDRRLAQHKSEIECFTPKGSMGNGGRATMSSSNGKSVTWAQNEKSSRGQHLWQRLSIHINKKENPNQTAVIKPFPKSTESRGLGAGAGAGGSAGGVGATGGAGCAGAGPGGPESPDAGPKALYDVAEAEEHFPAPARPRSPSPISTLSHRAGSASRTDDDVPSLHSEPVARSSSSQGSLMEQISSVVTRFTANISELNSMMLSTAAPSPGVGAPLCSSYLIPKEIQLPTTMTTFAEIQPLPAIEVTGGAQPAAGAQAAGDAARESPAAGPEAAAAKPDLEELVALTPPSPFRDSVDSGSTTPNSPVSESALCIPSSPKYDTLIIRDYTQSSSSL

Compound | IC50 (human mGluR5) [nM] | inhibition in vivo at 3 mg/kg (male Slc:ICR mice; [1]) [%] | inhibition in vivo at 3 mg/kg (male Slc:ICR mice; [2]) [%] | also measured
Cc1ncc(-c2cc(OCc3ccccn3)nc3c2CCC3)cn1 [Example 36, 4-(2-Methylpyrimidin-5-yl)-2-(pyridin-2-ylmethoxy)-6,7-dihydro-5H-cyclopenta[b]pyridine hydrochloride] | 71 | 40.4 | 31.3 | –
Cc1ncc(-c2cc(OCc3nc(F)ccc3F)nc3c2CCC3)cn1 [Example 43, 2-[(3,6-Difluoropyridin-2-yl)methoxy]-4-(2-methylpyrimidin-5-yl)-6,7-dihydro-5H-cyclopenta[b]pyridine] | – | 31 | 41.9 | –
Cc1cccc(COc2cc(-c3cnc(C)nc3)c3c(n2)CCC3)n1 [Example 45, 2-[(6-Methylpyridin-2-yl)methoxy]-4-(2-methylpyrimidin-5-yl)-6,7-dihydro-5H-cyclopenta[b]pyridine hydrochloride] | – | 34.1 | 33.8 | –
c1ccc(COc2cc(-c3cncnc3)c3c(n2)CCCC3)nc1 [Example 143, 2-(Pyridin-2-ylmethoxy)-4-(pyrimidin-5-yl)-5,6,7,8-tetrahydroquinoline hydrochloride] | 38 | 52.2 | 47.7 | –
Fc1cccnc1COc1cc(-c2cncnc2)c2c(n1)CCCC2 [Example 147, 2-[(3-Fluoropyridin-2-yl)methoxy]-4-(pyrimidin-5-yl)-5,6,7,8-tetrahydroquinoline] | 19.7 | 38.8 | 21.1 | –
Fc1ccc(F)c(COc2cc(-c3cncnc3)c3c(n2)CCCC3)n1 [Example 148, 2-[(3,6-Difluoropyridin-2-yl)methoxy]-4-(pyrimidin-5-yl)-5,6,7,8-tetrahydroquinoline] | 22 | 45.7 | 31.5 | –
Cc1cccc(COc2cc(-c3cnc(C)nc3)c3c(n2)CCCC3)n1 [Example 182, 2-[(6-Methylpyridin-2-yl)methoxy]-4-(2-methylpyrimidin-5-yl)-5,6,7,8-tetrahydroquinoline hydrochloride] | 123 | 26 | 43.2 | –
Cc1ncc(-c2cc(OCc3cccc(C#N)n3)nc3c2CCCC3)cn1 [Example 183, 6-({[4-(2-Methylpyrimidin-5-yl)-5,6,7,8-tetrahydroquinolin-2-yl]oxy}methyl)pyridine-2-carbonitrile] | 148 | – | – | inhibition in vivo at 1 mg/kg (male Slc:ICR mice; [1]): 37%; inhibition in vivo at 1 mg/kg (male Slc:ICR mice; [2]): 22.7%
OCc1cncc(-c2cc(OCc3ncccc3F)nc3c2CCCC3)n1 [Example 217, (6-{2-[(3-Fluoropyridin-2-yl)methoxy]-5,6,7,8-tetrahydroquinolin-4-yl}pyrazin-2-yl)methanol] | – | 38.3 | 40.4 | –
Fc1ccc(F)c(COc2cc(-c3cncnc3)c3c(n2)CCC3)n1 [Example 255, 2-[(3,6-Difluoropyridin-2-yl)methoxy]-4-(pyrimidin-5-yl)-6,7-dihydro-5H-cyclopenta[b]pyridine] | – | 31 | 26.4 | –
c1ccc(COc2cc(-c3cccnn3)c3c(n2)CCC3)nc1 [Example 271, 4-(Pyridazin-3-yl)-2-(pyridin-2-ylmethoxy)-6,7-dihydro-5H-cyclopenta[b]pyridine] | 92 | – | – | –
N#Cc1ccc(COc2cc(-c3cccnn3)c3c(n2)CCC3)cc1 [Example 273, 4-({[4-(Pyridazin-3-yl)-6,7-dihydro-5H-cyclopenta[b]pyridin-2-yl]oxy}methyl)benzonitrile] | 62 | – | – | –
N#Cc1ccc(COc2cc(-c3cccnn3)c3c(n2)CCC3)nc1 [Example 275, 6-({[4-(Pyridazin-3-yl)-6,7-dihydro-5H-cyclopenta[b]pyridin-2-yl]oxy}methyl)pyridine-3-carbonitrile] | 82 | – | – | –
Fc1cccc(COc2cc(-c3cncnc3)c3c(n2)CCCC3)c1 [Example 281, 2-[(3-Fluorobenzyl)oxy]-4-(pyrimidin-5-yl)-5,6,7,8-tetrahydroquinoline] | 94 | – | – | –
Cc1ncc(-c2cc(OCc3ccnc(C#N)c3)nc3c2CCCC3)cn1 [Example 287, 4-({[4-(2-Methylpyrimidin-5-yl)-5,6,7,8-tetrahydroquinolin-2-yl]oxy}methyl)pyridine-2-carbonitrile] | 146 | – | – | –

Continued by falling IC50 (human mGluR5), values first:

IC50 (human mGluR5) [nM] | Compound | inhibition in vivo at 3 mg/kg (male Slc:ICR mice; [1]) [%] | inhibition in vivo at 3 mg/kg (male Slc:ICR mice; [2]) [%] | also measured
207 | Cc1ncc(-c2cc(OCc3cccc(C#N)n3)nc3c2CCC3)cn1 [Example 46, 6-({[4-(2-Methylpyrimidin-5-yl)-6,7-dihydro-5H-cyclopenta[b]pyridin-2-yl]oxy}methyl)pyridine-2-carbonitrile] | – | – | inhibition in vivo at 1 mg/kg (male Slc:ICR mice; [1]): 22%; inhibition in vivo at 1 mg/kg (male Slc:ICR mice; [2]): 31.5%
186 | N#Cc1cccc(COc2cc(-c3cncc(CO)n3)c3c(n2)CCC3)c1 [Example 270, 3-[({4-[6-(Hydroxymethyl)pyrazin-2-yl]-6,7-dihydro-5H-cyclopenta[b]pyridin-2-yl}oxy)methyl]benzonitrile] | – | – | –
119 | N#Cc1ccc(COc2cc(-c3cncc(CO)n3)c3c(n2)CCCC3)nc1 [Example 288, 6-[({4-[6-(Hydroxymethyl)pyrazin-2-yl]-5,6,7,8-tetrahydroquinolin-2-yl}oxy)methyl]pyridine-3-carbonitrile] | – | – | –
108 | N#Cc1cccc(COc2cc(-c3cncnc3)c3c(n2)CCCC3)c1 [Example 279, 3-({[4-(Pyrimidin-5-yl)-5,6,7,8-tetrahydroquinolin-2-yl]oxy}methyl)benzonitrile] | – | – | –
95 | Cc1cc(COc2cc(-c3cnc(C)nc3)c3c(n2)CCCC3)ccn1 [Example 286, 2-[(2-Methylpyridin-4-yl)methoxy]-4-(2-methylpyrimidin-5-yl)-5,6,7,8-tetrahydroquinoline] | – | – | –
92 | Fc1ccc(COc2cc(-c3cncnc3)c3c(n2)CCCC3)cc1 [Example 280, 2-[(4-Fluorobenzyl)oxy]-4-(pyrimidin-5-yl)-5,6,7,8-tetrahydroquinoline] | – | – | –
87 | N#Cc1ccc(COc2cc(-c3cncnc3)c3c(n2)CCCC3)cc1 [Example 278, 4-({[4-(Pyrimidin-5-yl)-5,6,7,8-tetrahydroquinolin-2-yl]oxy}methyl)benzonitrile] | – | – | –
71 | Cc1ncc(-c2cc(OCc3cccc(F)c3)nc3c2CCC3)cn1 [Example 266, 2-[(3-Fluorobenzyl)oxy]-4-(2-methylpyrimidin-5-yl)-6,7-dihydro-5H-cyclopenta[b]pyridine] | – | – | –
67 | OCc1cncc(-c2cc(OCc3ccc(F)cn3)nc3c2CCC3)n1 [Example 269, (6-{2-[(5-Fluoropyridin-2-yl)methoxy]-6,7-dihydro-5H-cyclopenta[b]pyridin-4-yl}pyrazin-2-yl)methanol] | – | – | –
66 | N#Cc1cc(COc2cc(-c3cncnc3)c3c(n2)CCCC3)ccn1 [Example 282, 4-({[4-(Pyrimidin-5-yl)-5,6,7,8-tetrahydroquinolin-2-yl]oxy}methyl)pyridine-2-carbonitrile] | – | – | –
61 | Cn1nccc1-c1cc(OCc2ccc(C#N)cn2)nc2c1CCC2 [Example 274, 6-({[4-(1-Methyl-1H-pyrazol-5-yl)-6,7-dihydro-5H-cyclopenta[b]pyridin-2-yl]oxy}methyl)pyridine-3-carbo nitrile] | – | – | –
55 | Cc1ncc(-c2cc(OCc3nc(C#N)co3)nc3c2CCC3)cn1 [Example 267, 2-({[4-(2-Methylpyrimidin-5-yl)-6,7-dihydro-5H-cyclopenta[b]pyridin-2-yl]oxy}methyl)-1,3-oxazole-4-carbonitrile] | – | – | –
28 | N#Cc1ccc(COc2cc(-c3cncc(CO)c3)c3c(n2)CCCC3)nc1 [Example 276, 6-[({4-[5-(Hydroxymethyl)pyridin-3-yl]-5,6,7,8-tetrahydroquinolin-2-yl}oxy)methyl]pyridine-3-carbonitrile] | – | – | –
